Assays:
[1] = target: T1, Signal transducer and activator of transcription 3 (Homo sapiens, UniProt P40763); experiment: Inhibition of STAT3 phosphorylation at Tyr705 residues in human DU145 cells assessed as ratio of phosphorylated STAT3 protein level to GAPDH protein level at 1 uM after 24 hrs by Western blot analysis (reference value: 1); assay type: cell-based
[2] = target: T1, Signal transducer and activator of transcription 3; experiment: Inhibition of STAT3 phosphorylation at Tyr705 residues in human DU145 cells assessed as ratio of phosphorylated STAT3 protein level to GAPDH protein level at 5 uM after 24 hrs by Western blot analysis (reference value: 1); assay type: cell-based
[3] = target: T1, Signal transducer and activator of transcription 3; experiment: Inhibition of STAT3 phosphorylation at Tyr705 residues in human DU145 cells assessed as ratio of phosphorylated STAT3 protein level to GAPDH protein level at 5 uM after 0.5 hrs by Western blot analysis (reference value: 1); assay type: cell-based
[4] = target: T1, Signal transducer and activator of transcription 3; experiment: Inhibition of STAT3 phosphorylation at Tyr705 residues in human DU145 cells assessed as ratio of phosphorylated STAT3 protein level to GAPDH protein level at 5 uM after 1 hr by Western blot analysis (reference value: 1); assay type: cell-based
[5] = target: T1, Signal transducer and activator of transcription 3; experiment: Inhibition of STAT3 phosphorylation at Tyr705 residues in human DU145 cells assessed as ratio of phosphorylated STAT3 protein level to GAPDH protein level at 5 uM after 12 hrs by Western blot analysis (reference value: 1); assay type: cell-based
DU-145 [6] = experiment: Effect on total STAT3 protein level in human DU145 cells assessed as ratio of STAT3 protein level to GAPDH protein level at 5 uM after 1 hr by Western blot analysis (reference value: 1); assay type: ADME, cell-based; conditions: du-145, 1 h
[7] = target: T1, Signal transducer and activator of transcription 3; experiment: Inhibition of STAT3 in human DU145 cells assessed as ratio of cyclin A protein level to tubulin protein level at 5 uM after 48 hrs by Western blot analysis (reference value: 1); assay type: cell-based
[8] = target: T1, Signal transducer and activator of transcription 3; experiment: Inhibition of STAT3 in human DU145 cells assessed as ratio of Bcl-xl protein level to tubulin protein level at 5 uM after 48 hrs by Western blot analysis (reference value: 1); assay type: cell-based
[9] = target: T1, Signal transducer and activator of transcription 3; experiment: Inhibition of STAT3 in human DU145 cells assessed as ratio of survivin protein level to tubulin protein level at 5 uM after 48 hrs by Western blot analysis (reference value: 1); assay type: cell-based
[10] = target: T1, Signal transducer and activator of transcription 3; experiment: Inhibition of STAT3 in human DU145 cells assessed as ratio of PARP protein level to tubulin protein level at 5 uM after 48 hrs by Western blot analysis (reference value: 1); assay type: cell-based
LNCaP [11] = experiment: Effect on total STAT3 protein level in human LNCAP cells assessed as ratio of STAT3 protein level to GAPDH protein level at 5 uM after 12 hrs by Western blot analysis (reference value: 1); assay type: ADME, cell-based
LNCaP [12] = experiment: Effect on total STAT3 protein level in IL-6 stimulated human LNCAP cells assessed as ratio of STAT3 protein level to GAPDH protein level at 5 uM preincubated for 12 hrs followed by IL-6 stimulation for 30 mins by Western blot analysis (reference value: 1.3); assay type: ADME, cell-based; conditions: 0.5 h
DU-145 [13] = experiment: Cell cycle arrest in human DU145 cells assessed as accumulation at G0/G1 phase at 5 uM after 12 hrs by flow cytometry (reference value: 24.07%); assay type: functional
DU-145 [14] = experiment: Cell cycle arrest in human DU145 cells assessed as accumulation at G2/M phase at 5 uM after 12 hrs by flow cytometry (reference value: 18.12%); assay type: functional
DU-145 [15] = experiment: Cell cycle arrest in human DU145 cells assessed as accumulation at G2/M phase at 5 uM after 24 hrs by flow cytometry (reference value: 18.12%); assay type: functional
DU-145 [16] = experiment: Cell cycle arrest in human DU145 cells assessed as accumulation at S phase at 5 uM after 48 hrs by flow cytometry (reference value: 6.6%); assay type: functional
[17] = target: T1, Signal transducer and activator of transcription 3; experiment: Binding affinity to STAT3 in human DU145 cell lysates assessed as reduction in pronase-induced STAT3 digestion by measuring ratio of STAT3 protein level to GAPDH protein level at 50 uM incubated for 1 hr followed by 0.05% pronase addition for 10 mins by Western blot analysis (reference value: 0.4)
[18] = target: T1, Signal transducer and activator of transcription 3; experiment: Binding affinity to STAT3 in human DU145 cell lysates assessed as reduction in pronase-induced STAT3 digestion by measuring ratio of STAT3 protein level to GAPDH protein level at 50 uM incubated for 1 hr followed by 0.1% pronase addition for 10 mins by Western blot analysis (reference value: 0.2)
[19] = target: T1, Signal transducer and activator of transcription 3; experiment: Binding affinity to STAT3 in human DU145 cell lysates assessed as reduction in pronase-induced STAT3 digestion by measuring ratio of STAT3 protein level to GAPDH protein level at 1 uM incubated for 1 hr in absence of pronase by Western blot analysis (reference value: 1)
[20] = target: T1, Signal transducer and activator of transcription 3; experiment: Binding affinity to STAT3 in human DU145 cell lysates assessed as reduction in pronase-induced STAT3 digestion by measuring ratio of STAT3 protein level to GAPDH protein level at 50 uM incubated for 1 hr in absence of pronase by Western blot analysis (reference value: 1)
[21] = target: T1, Signal transducer and activator of transcription 3; experiment: Binding affinity to STAT3 in human DU145 cell lysates assessed as reduction in pronase-induced STAT3 digestion by measuring ratio of STAT3 protein level to GAPDH protein level at 100 uM incubated for 1 hr in absence of pronase by Western blot analysis (reference value: 1)
[22] = target: T1, Signal transducer and activator of transcription 3; experiment: Binding affinity to STAT3 in human DU145 cell lysates assessed as reduction in pronase-induced STAT3 digestion by measuring ratio of STAT3 protein level to GAPDH protein level at 1 uM incubated for 1 hr followed by 0.05% pronase addition for 10 mins by Western blot analysis (reference value: 1)
[23] = target: T1, Signal transducer and activator of transcription 3; experiment: Binding affinity to STAT3 in human DU145 cell lysates assessed as reduction in pronase-induced STAT3 digestion by measuring ratio of STAT3 protein level to GAPDH protein level at 10 uM incubated for 1 hr followed by 0.05% pronase addition for 10 mins by Western blot analysis (reference value: 1)
[24] = target: T1, Signal transducer and activator of transcription 3; experiment: Binding affinity to STAT3 in human DU145 cell lysates assessed as reduction in pronase-induced STAT3 digestion by measuring ratio of STAT3 protein level to GAPDH protein level incubated for 1 hr in absence of pronase by Western blot analysis
DU-145 [25] = experiment: Induction of intracellular ROS generation in human DU145 cells at 5 uM by DCFH-DA probe based flow cytometry; assay type: functional, cell-based; conditions: TDE = time-dependent effect
[26] = target: T1, Signal transducer and activator of transcription 3; experiment: Inhibition of STAT3-induced ERK1/2 phosphorylation in human DU145 cells assessed as ratio of phosphorylated ERK1/2 protein level to GAPDH protein level at 5 uM after 0.5 hrs by Western blot analysis (reference value: 1); assay type: cell-based
DU-145 [27] = experiment: Effect on total ERK1/2 protein level in human DU145 cells assessed as ratio of ERK1/2 protein level to GAPDH protein level at 5 uM after 12 hrs by Western blot analysis (reference value: 1); assay type: ADME, cell-based; conditions: du-145, 12 h

T1 sequence (P40763 whole entry): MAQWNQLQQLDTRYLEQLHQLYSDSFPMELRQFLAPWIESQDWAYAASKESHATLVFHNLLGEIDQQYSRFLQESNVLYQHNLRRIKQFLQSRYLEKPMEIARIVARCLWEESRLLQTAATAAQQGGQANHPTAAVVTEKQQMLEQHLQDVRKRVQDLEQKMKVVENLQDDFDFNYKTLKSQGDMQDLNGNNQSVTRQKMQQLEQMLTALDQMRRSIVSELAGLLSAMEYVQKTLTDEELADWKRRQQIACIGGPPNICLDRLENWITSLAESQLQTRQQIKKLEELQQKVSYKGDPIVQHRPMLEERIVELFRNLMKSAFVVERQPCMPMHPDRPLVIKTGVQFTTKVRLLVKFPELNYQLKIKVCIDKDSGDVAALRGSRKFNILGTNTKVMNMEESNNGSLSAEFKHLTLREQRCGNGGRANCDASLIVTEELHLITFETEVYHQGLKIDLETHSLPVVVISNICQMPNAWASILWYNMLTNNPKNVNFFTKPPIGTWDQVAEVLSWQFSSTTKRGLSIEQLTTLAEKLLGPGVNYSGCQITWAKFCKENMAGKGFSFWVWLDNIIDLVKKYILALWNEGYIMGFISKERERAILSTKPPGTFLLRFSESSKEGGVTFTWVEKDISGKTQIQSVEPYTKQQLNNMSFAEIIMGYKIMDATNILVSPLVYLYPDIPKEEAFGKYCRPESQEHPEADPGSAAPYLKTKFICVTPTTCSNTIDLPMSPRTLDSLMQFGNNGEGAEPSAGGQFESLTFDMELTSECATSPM

Ratio [1]: 0.6 | Ratio [2]: 0.3 | Ratio [3]: 0.5 | Ratio [4]: 0.3 | Ratio [5]: 0.2 | Ratio (DU-145 [6]): 1 | Ratio [7]: 0.6 | Ratio [8]: 1 | Ratio [10]: 0.3 to 0.6 | Ratio (LNCaP [11]): 1.2 | Ratio (LNCaP [12]): 1.1 | Ratio [17]: 0.5 | Ratio [18]: 0.3 | Ratio [19]: 1 | Ratio [20]: 1.1 | Ratio [21]: 1.2 | Ratio [22]: 1.1 | Ratio [23]: 2.1 | Activity [24]: Dose-dependent effect | Ratio [26]: 1.6 | Ratio (DU-145 [27]): 0.9
SMILES: C=C(C)C(=O)N(Cc1ccc(Br)cc1)C(=O)/C=C/c1cc(OC)c(OC)c(OC)c1
Ratio [9]: 0.7 | Activity (DU-145 [13]): 38.15% | Activity (DU-145 [14]): 21.05% | Activity (DU-145 [15]): 22.2% | Activity (DU-145 [16]): 6.57% | Activity (DU-145 [25]): Tde
